According to ChEMBL document CHEMBL1133870, “Two novel cytotoxic and antimicrobial triterpenoids from Pseudolarix kaempferi” (Bioorg Med Chem Lett, 2001):
In brackets after ≈: the same amount, converted by molar mass.

Assays:
[1] = tested on: A549; test: Compound was tested for its cytotoxicity against A 549 cell line; type: functional, cell-based; settings: Homo sapiens
[2] = tested on: P388; test: Compound was tested for its cytotoxicity against P388 cell line; type: functional, cell-based; settings: Mus musculus
[3] = tested on: Pseudomonas aeruginosa; test: Compound was tested for minimum inhibitory concentration against Pseudomonas aeruginosa […]; type: functional
[4] = tested on: Escherichia coli; test: Compound was tested for minimum inhibitory concentration against Escherichia coli […]; type: functional
[5] = tested on: Staphylococcus aureus; test: Compound was tested for minimum inhibitory concentration against Staphylococcus aureus ATCC 25923; type: functional
[6] = tested on: Micrococcus luteus; test: Compound was tested for minimum inhibitory concentration against Micrococcus luteus ATCC 9341; type: functional

SMILES	IC50 [1] [µM]	IC50 [2] [µM]	MIC [3] [µM]	MIC [4] [µM]	MIC [5] [µM]	MIC [6] [µM]
C[C@H](CC(=O)O)[C@]1(C)CC=C2C3=CCC4C(C)(C)[C@H](O)CC[C@]4(C)[C@@H]3CC[C@]21C (stereo partly specified)	60	55				
C=CCc1ccc(O)c(-c2cc(CC=C)ccc2O)c1 [MAGNOLOL]			> 750	> 750	48 (≈ 12.8 µg/mL)	48 (≈ 12.8 µg/mL)
C[C@H](Cc1cc(C(=O)O)co1)[C@]1(C)CC=C2C3=CCC4C(C)(C)[C@H](O)CC[C@]4(C)[C@@H]3CC[C@]21C (stereo partly specified)	54	50	> 215	107 (≈ 49.9 µg/mL)	27 (≈ 12.6 µg/mL)	13 (≈ 6.07 µg/mL)
C=C[C@@](C)(/C=C/c1ccc(O)cc1)CCC=C(C)C [BAKUCHIOL]			> 780	> 780	19 (≈ 4.87 µg/mL)	10 (≈ 2.56 µg/mL)
